Surface tension liquid-gas and mass density data for 6 compounds are collected here from the NIST ThermoML archive (doi:10.1021/je100177u).

Each structure is given as a SMILES string. ± gives the expanded uncertainty stated by the source.

The conditions of the series: 298.15 K; for surface tension liquid-gas: Drop volume; for mass density: 101.33 kPa, Liquid.

For the compound `CCCCCl` [1-chlorobutane], the surface tension liquid-gas was found to be 23.29 ± 0.18 mN/m and the mass density came to 880.69 ± 0.61 kg/m3.

`CC(C)CO` [2-methyl-1-propanol]: the surface tension liquid-gas is 22.47 ± 0.15 mN/m and the mass density was 797.77 ± 0.62 kg/m3.

Turning to `CC(C)(C)O` [2-methylpropan-2-ol], the surface tension liquid-gas turned out to be 20.3 ± 0.14 mN/m and the mass density is 780.78 ± 0.65 kg/m3.

Take `CCCCO` [butan-1-ol]: the surface tension liquid-gas is listed as 24.25 ± 0.15 mN/m and the mass density is on record as 805.8 ± 0.29 kg/m3.

As for `CCC(C)O` (configuration not stated) [butan-2-ol], the surface tension liquid-gas is recorded as 23.08 ± 0.18 mN/m and the mass density is reported as 802.44 ± 0.73 kg/m3.

`CCCCCC` [hexane]: the surface tension liquid-gas was found to be 18.06 ± 0.16 mN/m and the mass density came to 655.07 ± 0.98 kg/m3.
